Patent US7572818B2, “2-pyridylethylbenzamide derivative” (Bayer Cropscience S.A., priority 2002, dated 2009)

What was measured:
Settings in all cases: 500 g/ha, preventive spray 24 h before inoculation
[1] = system: Alternaria brassicae; experiment: In vivo test of activity on Alternaria brassicae (crucifer black spot) on radish
[2] = system: Botrytis cinerea; experiment: In vivo test of activity on Botrytis cinerea on cucumber
Method: In Vivo Test of Activity on Botrytis cinerea on Cucumber
(§1) An aqueous solution of the active material to be tested is prepared at a concentration of 2 g/l by grinding in solution 1 or solution 2:
(§2) • Water • Tween 80 diluted to 10% in water: 5 μl/mg of active material • Clay in a sufficient amount for active material+clay to equal 100 mg; Solution 2
(§3) Concentrated solution containing surfactants and adjuvants conventionally used: 200 μl/mg of active material.
(§4) The aqueous solution is diluted with water so as to obtain the desired concentration.
Cucumbers of the Marketer variety are sown in a 50/50 pozzolan/peat substrate and maintained at 18-22° C. The treatment is carried out by spraying the aqueous suspension. The untreated control plants are sprayed with water.
24 hours after treatment, the plants are inoculated by spraying a solution of Botrytis cinerea spores (150 000 spores/ml) originating from a 15-day culture.
The cucumber plants are then maintained at 11-15° C. in a humid atmosphere. The effectiveness of the products is evaluated relative to the control plants after seven to eight days of incubation.
(§5) The effectiveness of the molecules is estimated, at 500 g/ha, 250 g/ha or 330 ppm, by the percentage of control relative to untreated plants. Under these conditions, good effectiveness is defined as more than 80% effectiveness. Average effectiveness is defined as an effectiveness between 50 and 80%. Poor effectiveness is defined as an effectiveness between 10 and 50% and zero effectiveness is defined as less than 10% effectiveness.

[3] = system: Pyrenophora teres; experiment: In vivo test of activity on Pyrenophora teres (barley net blotch)
Method: In Vivo Test of Activity on Pyrenophora teres (Barley Net Blotch)
as §1, §2, §3, §4
Barley plants of the Express variety are sown in a 50/50 pozzolan/peat substrate and maintained at 12° C. The treatment is carried out at the 1-leaf stage (10 cm) by spraying the aqueous suspension. The untreated control plants are sprayed with water.
24 hours after treatment, the plants are inoculated by spraying a solution of Pyrenophora teres spores (10 000 spores/ml) originating from a 10-day culture.
The barley plants are then maintained at 18° C. in a humid atmosphere. The effectiveness of the products is evaluated relative to the control plants after eight to fifteen days of incubation.
as §5

[4] = system: Septoria tritici; experiment: In vivo test of activity on Septoria tritici (wheat septoria disease)
Method: In Vivo Test of Activity on Septoria tritici (Wheat Septoria Disease
as §1, §2, §3, §4
Wheat plants of the Scipion variety are sown in a 50/50 pozzolan/peat substrate and maintained at 12° C. The treatment is carried out at the 1-leaf stage (10 cm) by spraying the aqueous suspension. The untreated control plants are sprayed with water.
24 hours after treatment, the plants are inoculated by spraying a solution of Septoria tritici spores (500 000 spores/ml) from a 7-day culture.
The wheat plantlets are then maintained at 18-20° C. in a humid atmosphere for 72 hours, and then at 90% relative humidity. The effectiveness of the products is evaluated relative to the control plants, 21 to 28 days after the contamination.
as §5

Measured: effectiveness (percentage of control relative to untreated plants)

O=C(NCCc1ncc(C(F)(F)F)cc1Cl)c1c(F)cccc1F [Compound A-25]
good to average: [1] | [2] | [3] | [4]

O=C(NCCc1ncc(C(F)(F)F)cc1Cl)c1ccccc1Cl [Compound A-2]
good to average: [1] | [2] | [3] | [4]

COc1ccccc1C(=O)NCCc1ncc(C(F)(F)F)cc1Cl [Compound A-7]
good to average: [1] | [2] | [3] | [4]
